# Source: publication PMC4600463 (European journal of medicinal chemistry, 2015)
# Entries after “also recorded” stand apart in the source; their conditions may differ.
# Molecular target: Keap1 (Kelch domain) (Homo sapiens, UniProt Q14145)
# Conditions: SAR discussion
# Chain of Keap1 (Kelch domain) (Q14145 321-609): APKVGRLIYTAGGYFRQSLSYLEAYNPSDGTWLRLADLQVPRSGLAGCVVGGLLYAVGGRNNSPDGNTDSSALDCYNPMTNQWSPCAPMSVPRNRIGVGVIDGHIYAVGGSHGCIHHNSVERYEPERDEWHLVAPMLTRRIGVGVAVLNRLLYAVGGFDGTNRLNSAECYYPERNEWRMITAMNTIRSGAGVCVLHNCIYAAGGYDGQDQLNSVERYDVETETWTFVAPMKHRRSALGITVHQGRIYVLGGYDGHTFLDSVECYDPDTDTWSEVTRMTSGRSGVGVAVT
row,Compound,Activity in fluorescence anisotropy assay (in words)
1,"COc1ccc(S(=O)(=O)Nc2cccc3ccccc23)cc1 [Compound 17, 4-methoxy-N-(naphthalen-1-yl)benzenesulfonamide]",inactive
2,"COc1ccc(S(=O)(=O)N(CC(=O)O)c2cccc3ccccc23)cc1 [Compound 18, N-((4-methoxyphenyl)sulfonyl)-N-(naphthalen-1-yl)glycine]",inactive
3,"COc1ccc(S(=O)(=O)Nc2cc(NS(=O)(=O)c3ccc(OC)cc3)c3ccccc3c2)cc1 [Compound 19, N,N′-(naphthalene-1,3-diyl)bis(4-methoxybenzenesulfonamide)]",loss of activity
4,"COc1ccc(S(=O)(=O)Nc2cc3ccccc3cc2NS(=O)(=O)c2ccc(OC)cc2)cc1 [Compound 20, N,N′-(naphthalene-2,3-diyl)bis(4-methoxybenzenesulfonamide)]",loss of activity
5,"COc1ccc(S(=O)(=O)N(CC(N)=O)c2cc(N(CC(N)=O)S(=O)(=O)c3ccc(OC)cc3)c3ccccc3c2)cc1 [Compound 21, 2,2′-(naphthalene-1,3-diylbis(((4-methoxyphenyl)sulfonyl)azanediyl))diacetamide]",loss of activity; also recorded: inactive
6,"COc1ccc(S(=O)(=O)N(CC(=O)O)c2cc(N(CC(=O)O)S(=O)(=O)c3ccc(OC)cc3)c3ccccc3c2)cc1 [Compound 22, 2,2′-(naphthalene-1,3-diylbis(((4-methoxyphenyl)sulfonyl)azanediyl))acetic acid]",loss of activity
7,"COc1ccc(S(=O)(=O)Nc2cc3ccccc3cc2N(CC(N)=O)S(=O)(=O)c2ccc(OC)cc2)cc1 [Compound 23, 2-(naphthalene-2,3-diylbis(((4-methoxyphenyl)sulfonyl)azanediyl))acetamide]",loss of activity; also recorded: inactive

# Continued, values first:
row,Activity in fluorescence anisotropy assay (in words),Compound
1,inactive,"O=S(=O)(Nc1ccc(NS(=O)(=O)c2ccccc2)c2ccccc12)c1ccccc1 [Compound 11a, N,N′-(naphthalene-1,4-diyl)dibenzenesulfonamide]"
2,inactive,"O=C(O)c1cccc(S(=O)(=O)Nc2ccc(NS(=O)(=O)c3cccc(C(=O)O)c3)c3ccccc23)c1 [Compound 11d, 3,3′-(((4-(hydrosulfonylamino)naphthalen-1-yl)amino)sulfonyl)dibenzoic acid]"
3,inactive,"O=S(=O)(Nc1ccc(NS(=O)(=O)c2cccc(C(F)(F)F)c2)c2ccccc12)c1cccc(C(F)(F)F)c1 [Compound 11f, N,N′-(naphthalene-1,4-diyl)bis(3-trifluoromethylbenzenesulfonamide)]"
